Measurements taken from US9713702B2, “Methods of electric field induced delivery of compounds, compositions used in delivery, and systems of delivery” (The Board of Trustee of the Leland Stanford Junior …, priority 2011, dated 2017).

Legend:
[1] = Release study in solution: electric field triggered release from the conductive hydrogel on a platinum electrode in PBS; type: physicochemical
Protocol: The triggered release capabilities of this system were firstly investigated in solution. In phosphate buffered saline (PBS, pH 7.2), a voltage of −0.5 V was applied between two platinum electrodes separated by a distance of 1 cm. The anode was coated with 100 mg of the hydrogel containing 0.25 wt % fluorescein-encapsulated PPy nanoparticles with a thickness around 0.1 cm. The resistivity of the swelled hydrogel and the PBS buffer was measured to be 5400 Ω·cm and 64 Ω·cm, respectively. Then, the electric field across the hydrogel was calculated to be approximately −4.5 V/cm. The electrical stimulus was applied for 10 seconds, which was repeated every five minutes, followed by measurements of the concentration of free fluorescein in the solution. […] For each stimulus, ˜20 ng of fluorescein was released. The voltage between the two electrodes was then set at −1.5 V (corresponding to an electric field across the hydrogel of −13.6 V/cm). […] The higher amount observed during the first stimulus may result from higher drug loading within the nanoparticles. Our interest in the practicability of this triggered release led us to perform a long-term release study over seven days. With the voltage between the two electrodes at −1.0 V (corresponding to an electric field across the hydrogel of −9.0 V/cm), the pulsed electric stimulus was applied to the conductive hydrogels for 20 s, once every 24 hr, followed by concentration measurements of free fluorescein in solution. […] In the case of daunorubicin, an electric field across the hydrogel of 4.5 V/cm (the set voltage was 0.5 V) was applied for 10 seconds every 5 minutes.
By applying voltage until no obvious drug release could be detected, the loading percentage of fluorescein and daunorubicin in PPy nanoparticles was calculated to be around 3.6 wt % and 3.2 wt %. […] Only with an electric stimulus can drugs be released on command. This represents an important advantage of our delivery system over conventional sustained release of drugs from hydrogel.
The platinum anode was firstly coated with the PLGA-PEG-PLGA polymer solution (100 mg of polymer) containing 0.25 wt % fluorescein (or daunorubicin)-encapsulated PPy nanoparticles, followed by solidification of the gel at room temperature. The PPy nanoparticles in the solidified gel was calculated to be 1 wt %. The coated platinum anode was then immersed in phosphate buffered saline (PBS, pH 7.2) together with a counter platinum electrode with a separated distance of 1 cm. For the release study in solution, specific voltages were applied between the two electrodes, followed by measurements of the concentration of released molecules by fluorescent assays.

[2] = Protocol: D-luciferin-encapsulated polypyrrole nanoparticles were synthesized the by an emulsion polymerization which could control the sizes of the nanoparticles. Luciferin served as a model molecule was incorporated in the polymer nanoparticle. […] At 4° C., 0.05 wt % of polypyrrole nanoparticles were dispersed in the water solution containing 15 wt % of poly[(D,L-lactic acid)-co-(glycolic acid)]-b-poly(ethylene oxide)-b-poly[(D,L-lactic acid)-co-(glycolic acid)] (PLGA-PEG-PLGA).
An electrical stimulus of −2.0 V/cm was applied for 10 seconds on the platinum electrodes in every 5 minutes, followed by measuring the concentration of luciferin in the solution.

Row | release of luciferin without applying voltage ([2]; D-luciferin-encapsulated polypyrrole nanoparticles in hydrogel, control without voltage) | SMILES | loading percentage in PPy nanoparticles ([1]; calculated by applying voltage until no obvious drug release could be detected) [wt %] | amount of daunorubicin released upon each stimulus ([1]; daunorubicin-encapsulated PPy nanoparticles in hydrogel, PBS pH 7.2, 0.5 V (4.5 V/cm across hydrogel), 10 seconds every 5 minutes) [ng] | release from PPy nanoparticles in hydrogel without applying voltage ([1]; drug encapsulated in PPy nanoparticles in hydrogel, no electric field (control)) | sustained release from hydrogel without encapsulation in PPy nanoparticles ([1]; drug in PLGA-PEG-PLGA hydrogel, not encapsulated in PPy nanoparticles, no voltage) | release of luciferin upon electric stimulus ([2]; D-luciferin-encapsulated polypyrrole nanoparticles in PLGA-PEG-PLGA hydrogel, -2.0 V/cm, 10 seconds every 5 minutes)
1 | – | COc1cccc2c1C(=O)c1c(O)c3c(c(O)c1C2=O)C[C@@](O)(C(C)=O)C[C@@H]3O[C@H]1C[C@H](N)[C@H](O)[C@H](C)O1 [daunorubicin] | ~3.2 | ~25 | no obvious release | most of the drugs in hydrogel were released in 4 days | –
2 | no release | O=C(O)[C@H]1CSC(c2nc3ccc(O)cc3s2)=N1 [luciferin, D-luciferin] | – | – | – | – | released by applying the electric stimulus
